Among the data in PubChem BioAssay (NCI) are GI50 and TGI values, retold here.

Molecules are shown by their SMILES. Several values for one entry are separate records, joined by “and”; a condition that tells them apart may be missing. Equal values may be shown once.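 A five-concentration, 48-hour dose response in 96-well plates underlies each endpoint, interpolated linearly between surrounding concentrations. Here, GI50 denotes the concentration required for 50% inhibition of growth. TGI marks complete inhibition of growth.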

Among the test systems are SK-MEL-5 melanoma; SK-OV-3 ovarian; KM12 colon; SNB-75 CNS; IGROV1 ovarian; OVCAR-3 ovarian; HCC-2998 colon; MDA-MB-231 breast; OVCAR-5 ovarian; 786-0 renal.
What all share (assay): NCI tumour cell line growth inhibition, 48 h

Take `C=C1CC[C@@H]2[C@](C)(COC(C)=O)[C@H](OC(C)=O)CC[C@@]2(C)[C@@H]1CC(Nc1ccc(S(=O)(=O)NC(C)=O)cc1)C1=CCOC1=O` (stereo not given in full): the GI50 was 3.22 µM in the experiment on SK-MEL-5 melanoma; 9.31 µM with SK-OV-3 ovarian; 5.11 µM in the experiment with KM12 colon; 3.08 µM in the experiment on SNB-75 CNS; 5.31 µM with IGROV1 ovarian; 1.49 µM in the experiment with OVCAR-3 ovarian. The GI50 in the experiment with HCC-2998 colon is 7.51 µM; in the experiment with MDA-MB-231 breast, 3.32 µM; with OVCAR-5 ovarian, 4.82 µM; with 786-0 renal, 2.44 µM. Besides, the TGI with SK-MEL-5 melanoma came to 11.5 µM; in the experiment with SK-OV-3 ovarian, 18.7 µM; with KM12 colon it was 15.9 µM; in the experiment with SNB-75 CNS it was 12.7 µM; with IGROV1 ovarian, 15.4 µM; in the experiment on OVCAR-3 ovarian, 3.02 µM. For the same compound, the TGI stood at 17.3 µM in the experiment with HCC-2998 colon, 11.6 µM in the experiment with MDA-MB-231 breast, 15.4 µM in the experiment on OVCAR-5 ovarian and 7.98 µM in the experiment on 786-0 renal.

Consider `CCN(CCCN(C)C)Cc1cc(I)cc(C)c1O`, for which the GI50 in the experiment with SK-MEL-5 melanoma was 17.6 µM; in the experiment on SK-OV-3 ovarian, 35.3 µM; with KM12 colon it was 20 µM; in the experiment with SNB-75 CNS it was 16.1 µM; with IGROV1 ovarian, 19.8 µM; in the experiment on OVCAR-3 ovarian, 26.7 µM. The GI50 in the experiment with HCC-2998 colon is 16.1 µM; in the experiment on MDA-MB-231 breast, 26.8 µM; in the experiment with OVCAR-5 ovarian, 26.8 µM; with 786-0 renal, 18.6 µM. Also, the TGI with SK-MEL-5 melanoma is 31.5 µM; with SK-OV-3 ovarian, greater than 100 µM; in the experiment on KM12 colon, 44.7 µM; in the experiment with SNB-75 CNS, 39.7 µM; in the experiment on IGROV1 ovarian, 45.4 µM; in the experiment on OVCAR-3 ovarian, greater than 100 µM. Also, the TGI is 32.2 µM in the experiment on HCC-2998 colon, 91 µM with MDA-MB-231 breast, 96.1 µM in the experiment on OVCAR-5 ovarian and 40 µM in the experiment with 786-0 renal.

As to `CN(c1ncccc1CNc1nc(Nc2ccc3c(c2)CC(=O)N3)ncc1C(F)(F)F)S(C)(=O)=O`, the GI50 is 2.57 µM and 2.28 µM with SK-MEL-5 melanoma; 5.04 µM and 4.61 µM in the experiment with SK-OV-3 ovarian; 0.367 µM and 0.425 µM with KM12 colon; 1.33 µM and 1.51 µM with SNB-75 CNS; 2.42 µM and 1.8 µM in the experiment on IGROV1 ovarian; 2.42 µM and 2.81 µM with OVCAR-3 ovarian. Moreover, the GI50 in the experiment with HCC-2998 colon was 1.41 µM and 1.8 µM; in the experiment on MDA-MB-231 breast it was 2.01 µM and 2.33 µM; in the experiment with OVCAR-5 ovarian, 2.22 µM and 2.7 µM; in the experiment on 786-0 renal it was 3.02 µM and 2.51 µM. In addition, the TGI in the experiment with SK-MEL-5 melanoma is 7.44 µM and 5.85 µM; in the experiment on SK-OV-3 ovarian, greater than 100 µM; in the experiment with KM12 colon, 4.52 µM and 7.35 µM; with SNB-75 CNS, 4.78 µM and 4.8 µM; in the experiment on IGROV1 ovarian, greater than 100 µM; in the experiment on OVCAR-3 ovarian it was greater than 26.9 µM. Moreover, the TGI in the experiment with HCC-2998 colon is 7.28 µM and 9.71 µM; in the experiment with MDA-MB-231 breast, greater than 100 µM; with OVCAR-5 ovarian, 60.3 µM and > 10 µM; in the experiment with 786-0 renal, greater than 83.8 µM.

As for `COc1ccc2c(c1OC)C[C@@H]1c3c(cc4c(c3-2)OCO4)CCN1C`, the TGI in the experiment with SK-MEL-5 melanoma is 38.1 µM; with SK-OV-3 ovarian it was 58.4 µM; in the experiment with KM12 colon, greater than 100 µM; in the experiment with SNB-75 CNS, 52.5 µM; in the experiment on IGROV1 ovarian it was 99.1 µM; in the experiment with OVCAR-3 ovarian, greater than 100 µM. In addition, the TGI in the experiment on HCC-2998 colon is 40.3 µM; with MDA-MB-231 breast it was greater than 100 µM; in the experiment with OVCAR-5 ovarian, greater than 100 µM; in the experiment with 786-0 renal, 63.9 µM.

For the compound `COc1ccc(C2CC(c3cccc(Nc4ccnc5cc(Cl)ccc45)c3)=NN2C=O)cc1` (stereo not given), the GI50 was 0.403 µM with SK-MEL-5 melanoma; 0.795 µM in the experiment on SK-OV-3 ovarian; 0.4 µM in the experiment on KM12 colon; 0.244 µM with SNB-75 CNS; 1.9 µM in the experiment with IGROV1 ovarian; 0.383 µM with OVCAR-3 ovarian. The GI50 with HCC-2998 colon was 1.68 µM; in the experiment with MDA-MB-231 breast, 1.7 µM; with OVCAR-5 ovarian, 7.61 µM; in the experiment on 786-0 renal, 0.665 µM. Also, the TGI in the experiment with SK-MEL-5 melanoma is 25.8 µM; with SK-OV-3 ovarian, greater than 35.6 µM; with KM12 colon it was greater than 36.4 µM; in the experiment with SNB-75 CNS, 3.01 µM; with IGROV1 ovarian, greater than 100 µM; with OVCAR-3 ovarian it was 3.59 µM. Also, the TGI with HCC-2998 colon was greater than 100 µM; in the experiment with MDA-MB-231 breast, greater than 66.4 µM; in the experiment with OVCAR-5 ovarian it was greater than 100 µM; in the experiment on 786-0 renal it was 30.8 µM.

For `Fc1cccc(COc2ccc(Nc3ncnc4sc(-c5cccs5)cc34)cc2Cl)c1`, the GI50 in the experiment with SK-MEL-5 melanoma was 2.93 µM; in the experiment on SK-OV-3 ovarian, 3.47 µM; with KM12 colon, 4.07 µM; in the experiment with SNB-75 CNS, 4.17 µM; in the experiment with IGROV1 ovarian, 8.73 µM; in the experiment on OVCAR-3 ovarian, 0.77 µM. Also, the GI50 was 5.25 µM in the experiment on HCC-2998 colon, 5.73 µM in the experiment with MDA-MB-231 breast, 6.89 µM in the experiment with OVCAR-5 ovarian and 8.34 µM in the experiment with 786-0 renal. For the same compound, the TGI with SK-MEL-5 melanoma was 12 µM; in the experiment on SK-OV-3 ovarian it was 9.69 µM; in the experiment on KM12 colon it was greater than 25 µM; with SNB-75 CNS, 10 µM; in the experiment on IGROV1 ovarian it was greater than 25 µM; in the experiment on OVCAR-3 ovarian, 6.24 µM. For the same compound, the TGI in the experiment with HCC-2998 colon is greater than 18.4 µM; in the experiment on MDA-MB-231 breast, 16.4 µM; with OVCAR-5 ovarian, greater than 25 µM; in the experiment on 786-0 renal it was greater than 18.7 µM.

`CCN(CC)c1ccc(/C=N/NC(=O)CSc2nc3ccccc3c(=O)n2CCc2ccc(S(N)(=O)=O)cc2)c(O)c1`: the GI50 with SK-MEL-5 melanoma was 2.49 µM; in the experiment with SK-OV-3 ovarian it was 2.72 µM; in the experiment on KM12 colon it was 1.56 µM; in the experiment with SNB-75 CNS it was 3.43 µM; in the experiment with IGROV1 ovarian it was 1.48 µM; in the experiment on OVCAR-3 ovarian, 0.296 µM. For the same compound, the GI50 in the experiment on HCC-2998 colon is 2.49 µM; with MDA-MB-231 breast, 2.27 µM; with OVCAR-5 ovarian, 4.4 µM; with 786-0 renal, 4.46 µM. The TGI in the experiment with SK-MEL-5 melanoma was 14.9 µM; with SK-OV-3 ovarian it was greater than 100 µM; in the experiment on KM12 colon, greater than 100 µM; in the experiment on SNB-75 CNS it was greater than 100 µM; with IGROV1 ovarian, greater than 100 µM; in the experiment with OVCAR-3 ovarian, greater than 100 µM. The TGI was greater than 100 µM in the experiment with HCC-2998 colon, 50.2 µM in the experiment with MDA-MB-231 breast, greater than 100 µM in the experiment on OVCAR-5 ovarian and greater than 100 µM in the experiment with 786-0 renal.
